Several values for one entry are separate records, joined by “and”; a condition that tells them apart may be missing. Equal entries are not always repeated. Inconclusive results are not listed.
System: CD8F1 mice, subcutaneous mammary adenocarcinoma, T/C%
Test: NCI In Vivo Anticancer Drug Screen. Data for tumor model Mammary Adenocarcinoma CD8F1 (subcutaneous) in CD8F1
Conditions: higher = larger tumour
Procedure: The antitumor activity of compounds was measured in mice bearing transplantable tumors. Survival or tumor size were measured and the results are expressed as the measurement made in the treated group (T) divided by the measurement made in the vehicle treated control group (C). The tumor model used in this assay is Mammary Adenocarcinoma CD8F1 (subcutaneous) in CD8F1

[1] = endpoint: median tumor weight (est.), dose: 12.5 mg/kg/injection, schedule: Q07DX005 (ip), vehicle: Klucel (hydroxypropylcellulose) (HPC)
[2] = endpoint: median tumor weight (est.), dose: 25.0 mg/kg/injection, schedule: Q07DX005 (ip), vehicle: Klucel (hydroxypropylcellulose) (HPC)
[3] = endpoint: median tumor weight (est.), dose: 50.0 mg/kg/injection, schedule: Q07DX005 (ip), vehicle: Klucel (hydroxypropylcellulose) (HPC)
[4] = endpoint: median tumor weight (est.), dose: 100.0 mg/kg/injection, schedule: Q07DX005 (ip), vehicle: Klucel (hydroxypropylcellulose) (HPC)
[5] = endpoint: median tumor weight (est.), dose: 200.0 mg/kg/injection, schedule: Q07DX005 (ip), vehicle: Klucel (hydroxypropylcellulose) (HPC)

In the case of `O=CC(S)CO` (configuration not stated), the T/C (endpoint: median tumor weight (est.), dose: 12.5 mg/kg/injection, schedule: Q07DX005 (ip), vehicle: suspension in saline) is reported as 165 % of control, the T/C (endpoint: median tumor weight (est.), dose: 25.0 mg/kg/injection, schedule: Q07DX005 (ip), vehicle: suspension in saline) is reported as 231 % of control and 88 % of control and the T/C (endpoint: median tumor weight (est.), dose: 50.0 mg/kg/injection, schedule: Q07DX005 (ip), vehicle: suspension in saline) is reported as 112 % of control. For the same compound, the T/C (endpoint: median tumor weight (est.), dose: 200.0 mg/kg/injection, schedule: Q07DX005 (ip), vehicle: suspension in saline) was 102 % of control.

For `COc1ccc(Cl)[n+]([O-])n1`, the T/C (endpoint: median tumor weight change, dose: 125.0 mg/kg/injection, schedule: Q01DX001 (ip), vehicle: Klucel (hydroxypropylcellulose) (HPC)) was 79 % of control.

In the case of `C[C@H]1C[C@@H]2[C@H]([C@@H](O)C[C@@]3(C)[C@H]2CC[C@]3(O)C(=O)CO)[C@@]2(C)C=CC(=O)C=C12`, the T/C (endpoint: median tumor weight (est.), dose: 6.25 mg/kg/injection, schedule: Q07DX005 (ip), vehicle: Klucel (hydroxypropylcellulose) (HPC)) is reported as 70 % of control, the T/C [1] is reported as 63 % of control and the T/C [2] is reported as 63 % of control. For the same compound, the T/C [3] was 60 % of control, the T/C [4] was 53 % of control and the T/C [5] was 28 % of control.

In the case of `COc1cccc2c1C(=O)c1c(O)c3c(c(O)c1C2=O)C[C@@](O)(/C(C)=N\NC(=O)CO)C[C@@H]3OC1CC(N)C(O)C(C)O1` (some centres not stated), the T/C (endpoint: mean tumor weight, dose: 1.0 mg/kg/injection, schedule: Q07DX006 (ip), vehicle: saline) is reported as 110 % of control, the T/C (endpoint: mean tumor weight, dose: 2.0 mg/kg/injection, schedule: Q07DX006 (ip), vehicle: saline) is reported as 207 % of control and the T/C (endpoint: mean tumor weight, dose: 4.0 mg/kg/injection, schedule: Q07DX006 (ip), vehicle: saline) is reported as 64 % of control. The T/C (endpoint: median tumor weight (est.), dose: 1.0 mg/kg/injection, schedule: Q07DX005 (ip), vehicle: saline) was 85 % of control, the T/C (endpoint: median tumor weight (est.), dose: 2.0 mg/kg/injection, schedule: Q07DX005 (ip), vehicle: saline) was 47 % of control and the T/C (endpoint: median tumor weight (est.), dose: 4.0 mg/kg/injection, schedule: Q07DX005 (ip), vehicle: saline) was 104 % of control.

In the case of `CCCC(=O)O.CCCC(=O)O.CCCC(=O)O.CCCC(=O)O.[Rh].[Rh]`, the T/C (endpoint: median tumor weight change, dose: 0.62 mg/kg/injection, schedule: Q01DX001 (ip), vehicle: saline + alcohol) is reported as 116 % of control, the T/C (endpoint: median tumor weight change, dose: 1.25 mg/kg/injection, schedule: Q01DX001 (ip), vehicle: saline + alcohol) is reported as 81 % of control and 90 % of control and the T/C (endpoint: median tumor weight change, dose: 2.5 mg/kg/injection, schedule: Q01DX001 (ip), vehicle: saline + alcohol) is reported as 56 % of control.

For `CCCCCC(=O)O[C@]1(C(C)=O)CC[C@H]2[C@@H]3CCC4=CC(=O)CC[C@]4(C)[C@H]3CC[C@@]21C`, the T/C [1] was 95 % of control, the T/C [2] was 90 % of control and the T/C [3] was 101 % of control. For the same compound, the T/C [4] was 92 % of control, the T/C [5] was 49 % of control and the T/C (endpoint: median tumor weight (est.), dose: 400.0 mg/kg/injection, schedule: Q07DX005 (ip), vehicle: Klucel (hydroxypropylcellulose) (HPC)) was 77 % of control.

For `CCOC(=O)C1=C(C#N)C2(CCC(OCc3ccccc3)CC2)C(=O)O1` (configuration not stated), the T/C (endpoint: median tumor weight change, dose: 125.0 mg/kg/injection, schedule: Q01DX001 (ip), vehicle: suspension in saline) was 66 % of control, the T/C (endpoint: median tumor weight change, dose: 250.0 mg/kg/injection, schedule: Q01DX001 (ip), vehicle: suspension in saline) was 63 % of control and the T/C (endpoint: median tumor weight change, dose: 500.0 mg/kg/injection, schedule: Q01DX001 (ip), vehicle: suspension in saline) was 50 % of control. The T/C (endpoint: median tumor weight change, dose: 1000.0 mg/kg/injection, schedule: Q01DX001 (ip), vehicle: suspension in saline) was 24 % of control.

In the case of `NC(=O)/C=C/C(=O)c1c(Cl)cccc1Cl`, the T/C (endpoint: median tumor weight change, dose: 1.5 mg/kg/injection, schedule: Q01DX001 (ip), vehicle: saline with Tween-80) is reported as 110 % of control, the T/C (endpoint: median tumor weight change, dose: 3.0 mg/kg/injection, schedule: Q01DX001 (ip), vehicle: saline with Tween-80) is reported as 85 % of control and the T/C (endpoint: median tumor weight change, dose: 6.0 mg/kg/injection, schedule: Q01DX001 (ip), vehicle: saline with Tween-80) is reported as 100 % of control. The T/C (endpoint: median tumor weight change, dose: 12.0 mg/kg/injection, schedule: Q01DX001 (ip), vehicle: saline with Tween-80) was 90 % of control, the T/C (endpoint: median tumor weight change, dose: 12.5 mg/kg/injection, schedule: Q01DX001 (ip), vehicle: saline with Tween-80) was 71 % of control and the T/C (endpoint: median tumor weight change, dose: 50.0 mg/kg/injection, schedule: Q01DX001 (ip), vehicle: saline with Tween-80) was 104 % of control. For the same compound, the T/C (endpoint: median tumor weight change, dose: 100.0 mg/kg/injection, schedule: Q01DX001 (ip), vehicle: saline with Tween-80) was 55 % of control.
